# US20110015119A1, “NOVEL SEMI-SYNTHETIC GLYCOPEPTIDES AS ANTIBACTERIAL AGENTS” (LEAD THERAPEUTICS, INC., priority 2009, published 2011)
# Legend:
# Type in all cases: cell-based
# [1] = system: Staphylococcus epidermidis 831 (MRSE); experiment: MIC by broth microdilution, SE 831; details: Staphylococcus epidermidis, MRSE, read-out: MIC SE 831
# Method: (§1) Antibacterial activity in vitro is investigated by broth microdilution method in Meuller-Hinton broth as recommended by NCCLS. All strains tested are clinical isolates either sensitive or resistant to natural glycopeptides. MIC values were determined using the CLSI-recommended broth microdilution procedure (Clinical and Laboratory Standards Institute, Methods for Dilution Antimicrobial Susceptibility Tests for Bacteria That Grow Aerobically; Approved Standard-Seventh Edition.). Automated liquid handlers (Multidrop 384, Labsystems, Helsinki, Finland; Biomek 2000 and Multimek 96, Beckman Coulter, Fullerton Calif.) were used to conduct serial dilutions and liquid transfers. The MIC value for vancomycin is given for comparison. The abbreviations for organisms tested are as follow: SA 100—Staphylococcus aureus 100 (ATCC 29213); SA 757—Staphylococcus aureus 757 (MRSA); SA 2012—Staphylococcus aureus 2012 (VISA); SE 835—Staphylococcus epidermidis 835; SE 831—Staphylococcus epidermidis 831 (MRSE); EFc 101—Enterococcus faecalis 101 (ATCC 29212); EFc 848—Enterococcus faecalis 848 (VRE, Van A); EFcm 800—Enterococcus faecium 800; EFcm 752—Enterococcus faecium 752 (VRE, Van A); SPNE 1195—Streptococcus pneumoniae 1195 (ATCC 49619); SPY 712—Streptococcus pyogenes 712.
# [2] = system: Staphylococcus aureus 2012 (VISA); experiment: MIC by broth microdilution, SA 2012; details: Staphylococcus aureus, VISA, read-out: MIC SA 2012, Staphylococcus aureus 2012 (VISA); class symbols
# Method: as §1
# Enterococcus faecium 800 = experiment: MIC by broth microdilution, EFcm 800; details: Enterococcus faecium, 800, read-out: MIC E FCM 800
# Method: as §1
# [3] = system: Staphylococcus aureus 757 (MRSA); experiment: MIC by broth microdilution, SA 757; details: Staphylococcus aureus, MRSA, read-out: MIC SA 757
# Method: as §1
# [4] = system: Enterococcus faecalis 101 (ATCC 29212); experiment: MIC by broth microdilution, EFc 101; details: Enterococcus faecalis, ATCC29212, read-out: MIC E FC 101, Enterococcus faecalis 101 (ATCC 29212); class symbols
# Method: as §1
# [5] = system: Enterococcus faecalis 848 (VRE, Van A); experiment: MIC by broth microdilution, EFc 848; details: Enterococcus faecalis, VRE, read-out: MIC E FC 848, Enterococcus faecalis 848 (VRE, Van A); class symbols
# Method: as §1
# [6] = system: Staphylococcus epidermidis 835; experiment: MIC by broth microdilution, SE 835; details: Staphylococcus epidermidis, 835, read-out: MIC SE 835
# Method: as §1
# [7] = system: Streptococcus pneumoniae 1195 (ATCC 49619); experiment: MIC by broth microdilution, SPNE 1195; details: Streptococcus pneumoniae, ATCC49619, read-out: MIC S PNE 1195
# Method: as §1
# [8] = system: Streptococcus pyogenes 712; experiment: MIC by broth microdilution, SPY 712; details: Streptococcus pyogenes, 712, read-out: MIC S PYO 712
# Method: as §1
# [9] = system: Enterococcus faecium 752 (VRE, Van A); experiment: MIC by broth microdilution, EFcm 752; details: Enterococcus faecium, VRE, read-out: MIC E FCM 752, Enterococcus faecium 752 (VRE, Van A); class symbols
# Method: as §1
# [10] = system: Staphylococcus aureus 100 (ATCC 29213); experiment: MIC by broth microdilution, SA 100; details: Staphylococcus aureus, ATCC29213, read-out: MIC SA 100
# Method: as §1
Structure (SMILES),MIC [1],MIC [2],MIC (Enterococcus faecium 800),MIC [3],MIC [4],MIC [5],MIC [6],MIC [7],MIC [8],MIC [9],MIC [10]
"CCCCOc1ccc(CCNC(=O)Oc2cc(O)c3c(c2)[C@@H](C(=O)O)NC(=O)[C@H]2NC(=O)[C@H](NC(=O)[C@@H]4NC(=O)[C@H](CC(N)=O)NC(=O)[C@H](NC(=O)[C@@H](CC(C)C)NC)[C@H](O)c5ccc(c(Cl)c5)Oc5cc4cc(c5O[C@@H]4O[C@H](CO)[C@@H](O)[C@H](O)[C@H]4O[C@H]4C[C@](C)(N)[C@H](O)[C@H](C)O4)Oc4ccc(cc4Cl)[C@H]2O)c2ccc(O)c-3c2)cc1 (atropisomer, axis not shown) [Compound 351]",0.5 to 1 µg/mL,4 to 8 µg/mL,0.01 to 0.5 µg/mL,0.01 to 0.5 µg/mL,0.5 to 1 µg/mL,> 16 µg/mL,0.5 to 1 µg/mL,0.01 to 0.5 µg/mL,0.01 to 0.5 µg/mL,8 to 16 µg/mL,0.01 to 0.5 µg/mL
"CCCCCCc1ccc(S(=O)(=O)NCCCCCCNC(=O)Oc2cc(O)c3c(c2)[C@@H](C(=O)O)NC(=O)[C@H]2NC(=O)[C@H](NC(=O)[C@@H]4NC(=O)[C@H](CC(N)=O)NC(=O)[C@H](NC(=O)[C@@H](CC(C)C)NC)[C@H](O)c5ccc(c(Cl)c5)Oc5cc4cc(c5O[C@@H]4O[C@H](CO)[C@@H](O)[C@H](O)[C@H]4O[C@H]4C[C@](C)(N)[C@H](O)[C@H](C)O4)Oc4ccc(cc4Cl)[C@H]2O)c2ccc(O)c-3c2)cc1 (atropisomer, axis not shown) [Compound 352]",0.01 to 0.5 µg/mL,0.01 to 0.5 µg/mL,0.01 to 0.5 µg/mL,0.01 to 0.5 µg/mL,0.01 to 0.5 µg/mL,2 to 4 µg/mL,0.01 to 0.5 µg/mL,0.01 to 0.5 µg/mL,0.01 to 0.5 µg/mL,0.5 to 1 µg/mL,0.01 to 0.5 µg/mL
"CCOCCOCCNC(=O)Oc1cc(O)c2c(c1)[C@@H](C(=O)O)NC(=O)[C@H]1NC(=O)[C@H](NC(=O)[C@@H]3NC(=O)[C@H](CC(N)=O)NC(=O)[C@H](NC(=O)[C@@H](CC(C)C)NC)[C@H](O)c4ccc(c(Cl)c4)Oc4cc3cc(c4O[C@@H]3O[C@H](CO)[C@@H](O)[C@H](O)[C@H]3O[C@H]3C[C@](C)(N)[C@H](O)[C@H](C)O3)Oc3ccc(cc3Cl)[C@H]1O)c1ccc(O)c-2c1 (atropisomer, axis not shown) [Compound 353]",4 to 8 µg/mL,> 16 µg/mL,2 to 4 µg/mL,4 to 8 µg/mL,4 to 8 µg/mL,> 16 µg/mL,8 to 16 µg/mL,0.01 to 0.5 µg/mL,1 to 2 µg/mL,> 16 µg/mL,4 to 8 µg/mL
"CCCCCCc1ccc(NC(=O)NCCCCCCNC(=O)Oc2cc(O)c3c(c2)[C@@H](C(=O)O)NC(=O)[C@H]2NC(=O)[C@H](NC(=O)[C@@H]4NC(=O)[C@H](CC(N)=O)NC(=O)[C@H](NC(=O)[C@@H](CC(C)C)NC)[C@H](O)c5ccc(c(Cl)c5)Oc5cc4cc(c5O[C@@H]4O[C@H](CO)[C@@H](O)[C@H](O)[C@H]4O[C@H]4C[C@](C)(N)[C@H](O)[C@H](C)O4)Oc4ccc(cc4Cl)[C@H]2O)c2ccc(O)c-3c2)cc1 (atropisomer, axis not shown) [Compound 354]",0.01 to 0.5 µg/mL,0.5 to 1 µg/mL,0.01 to 0.5 µg/mL,0.01 to 0.5 µg/mL,0.01 to 0.5 µg/mL,2 to 4 µg/mL,0.01 to 0.5 µg/mL,0.01 to 0.5 µg/mL,0.01 to 0.5 µg/mL,0.01 to 0.5 µg/mL,0.01 to 0.5 µg/mL
"CCCCCCCOc1ccc(S(=O)(=O)NCCCCCCNC(=O)Oc2cc(O)c3c(c2)[C@@H](C(=O)O)NC(=O)[C@H]2NC(=O)[C@H](NC(=O)[C@@H]4NC(=O)[C@H](CC(N)=O)NC(=O)[C@H](NC(=O)[C@@H](CC(C)C)NC)[C@H](O)c5ccc(c(Cl)c5)Oc5cc4cc(c5O[C@@H]4O[C@H](CO)[C@@H](O)[C@H](O)[C@H]4O[C@H]4C[C@](C)(N)[C@H](O)[C@H](C)O4)Oc4ccc(cc4Cl)[C@H]2O)c2ccc(O)c-3c2)cc1 (atropisomer, axis not shown) [Compound 355]",0.01 to 0.5 µg/mL,0.5 to 1 µg/mL,0.01 to 0.5 µg/mL,0.01 to 0.5 µg/mL,0.01 to 0.5 µg/mL,1 to 2 µg/mL,0.01 to 0.5 µg/mL,0.01 to 0.5 µg/mL,0.01 to 0.5 µg/mL,0.01 to 0.5 µg/mL,0.01 to 0.5 µg/mL
